The record followed here is ChEMBL document CHEMBL1140941 (J Med Chem, 2009).

Structures are written as SMILES. The source made the active and inactive calls. No cut-off for these calls is given here.

Data set [1] deals with Vitamin D3 receptor (Homo sapiens) (UniProt P11473). In words: Agonist activity at VP16-VDR expressed in african green monkey CV1 cells co-expressing MH100 by luciferase reporter gene assay. The data set is classed as functional, cell-based. To be noted: CV-1.
Data set [2] addresses T1, Estrogen receptor (Homo sapiens) (UniProt P03372).
T1 sequence (whole entry): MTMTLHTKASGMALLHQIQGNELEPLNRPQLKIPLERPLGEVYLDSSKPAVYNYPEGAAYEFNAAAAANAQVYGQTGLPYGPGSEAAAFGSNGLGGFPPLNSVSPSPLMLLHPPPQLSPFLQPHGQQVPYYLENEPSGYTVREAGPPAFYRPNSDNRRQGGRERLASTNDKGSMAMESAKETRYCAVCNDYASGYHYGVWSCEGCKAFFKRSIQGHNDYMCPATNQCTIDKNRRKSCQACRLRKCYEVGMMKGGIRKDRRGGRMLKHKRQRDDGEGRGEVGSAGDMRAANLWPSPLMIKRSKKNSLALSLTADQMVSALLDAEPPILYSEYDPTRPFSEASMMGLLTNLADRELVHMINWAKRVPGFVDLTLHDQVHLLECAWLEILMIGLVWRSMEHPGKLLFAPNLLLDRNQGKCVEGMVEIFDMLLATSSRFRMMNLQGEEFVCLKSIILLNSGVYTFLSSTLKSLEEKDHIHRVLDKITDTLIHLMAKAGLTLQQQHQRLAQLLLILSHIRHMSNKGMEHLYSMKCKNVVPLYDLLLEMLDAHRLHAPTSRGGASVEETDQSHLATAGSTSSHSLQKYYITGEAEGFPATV
In words: Agonist activity at gal-ERalpha expressed in african green monkey CV1 cells co-expressing MH100 by luciferase reporter gene assay. Format: functional, cell-based. To be noted: CV-1. For orientation: Reporter assays use an easily measured gene product as a stand-in for the process of interest.

Data set [3] concerns the target T2, Progesterone receptor (Homo sapiens) (UniProt P06401).
T2 sequence (whole entry): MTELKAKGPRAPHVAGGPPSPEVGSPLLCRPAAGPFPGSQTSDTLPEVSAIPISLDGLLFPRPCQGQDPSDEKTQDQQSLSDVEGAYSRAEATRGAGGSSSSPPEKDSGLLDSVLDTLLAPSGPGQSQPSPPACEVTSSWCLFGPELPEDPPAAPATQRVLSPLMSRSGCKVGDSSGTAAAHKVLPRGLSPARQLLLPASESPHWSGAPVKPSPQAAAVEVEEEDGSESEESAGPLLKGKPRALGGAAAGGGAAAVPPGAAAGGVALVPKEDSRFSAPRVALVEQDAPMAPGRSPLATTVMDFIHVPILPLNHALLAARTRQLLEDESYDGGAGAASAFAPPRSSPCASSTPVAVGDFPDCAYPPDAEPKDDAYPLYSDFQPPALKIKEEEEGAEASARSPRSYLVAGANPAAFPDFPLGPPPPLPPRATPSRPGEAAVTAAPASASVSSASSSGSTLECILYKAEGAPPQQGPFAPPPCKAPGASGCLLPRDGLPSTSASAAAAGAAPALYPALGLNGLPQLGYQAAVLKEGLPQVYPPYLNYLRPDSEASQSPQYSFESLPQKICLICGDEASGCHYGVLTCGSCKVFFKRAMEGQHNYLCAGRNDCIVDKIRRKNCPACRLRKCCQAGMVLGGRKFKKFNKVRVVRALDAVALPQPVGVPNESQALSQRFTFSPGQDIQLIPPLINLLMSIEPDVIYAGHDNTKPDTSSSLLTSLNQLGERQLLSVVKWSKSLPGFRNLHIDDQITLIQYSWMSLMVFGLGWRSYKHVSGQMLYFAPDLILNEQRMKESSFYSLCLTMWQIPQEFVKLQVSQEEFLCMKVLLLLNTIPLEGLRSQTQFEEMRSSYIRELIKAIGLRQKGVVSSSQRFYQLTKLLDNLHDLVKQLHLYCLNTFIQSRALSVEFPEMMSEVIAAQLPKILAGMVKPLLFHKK
In words: Agonist activity at gal-PR expressed in african green monkey CV1 cells co-expressing MH100 by luciferase reporter gene assay. The data set is classed as functional, cell-based. Conditions: CV-1.

Data set [4] addresses T3, Bile acid receptor (Homo sapiens) (UniProt Q96RI1).
T3 sequence (whole entry): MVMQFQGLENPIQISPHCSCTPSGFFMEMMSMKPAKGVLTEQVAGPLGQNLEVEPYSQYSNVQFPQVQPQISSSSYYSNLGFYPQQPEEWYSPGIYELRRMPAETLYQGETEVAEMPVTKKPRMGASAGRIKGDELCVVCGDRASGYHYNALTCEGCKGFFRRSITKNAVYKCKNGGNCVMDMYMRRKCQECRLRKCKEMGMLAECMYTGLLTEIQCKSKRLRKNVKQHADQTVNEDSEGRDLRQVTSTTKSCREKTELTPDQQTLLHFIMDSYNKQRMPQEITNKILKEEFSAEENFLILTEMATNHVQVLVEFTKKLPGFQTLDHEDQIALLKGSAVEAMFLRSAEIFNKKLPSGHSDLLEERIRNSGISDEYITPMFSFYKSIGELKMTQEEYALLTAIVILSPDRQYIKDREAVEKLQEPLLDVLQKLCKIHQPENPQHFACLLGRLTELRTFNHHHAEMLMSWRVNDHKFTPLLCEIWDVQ
In words: Agonist activity at human FXR expressed in african green monkey CV1 cells co-expressing ECRE with RXR co-factor up to 10 uM by luciferase reporter gene assay relative to CDCA. Format: functional, cell-based. Conditions: CV-1.

In data set [5] the target is T4, Peroxisome proliferator-activated receptor delta (Homo sapiens) (UniProt Q03181).
T4 sequence (whole entry): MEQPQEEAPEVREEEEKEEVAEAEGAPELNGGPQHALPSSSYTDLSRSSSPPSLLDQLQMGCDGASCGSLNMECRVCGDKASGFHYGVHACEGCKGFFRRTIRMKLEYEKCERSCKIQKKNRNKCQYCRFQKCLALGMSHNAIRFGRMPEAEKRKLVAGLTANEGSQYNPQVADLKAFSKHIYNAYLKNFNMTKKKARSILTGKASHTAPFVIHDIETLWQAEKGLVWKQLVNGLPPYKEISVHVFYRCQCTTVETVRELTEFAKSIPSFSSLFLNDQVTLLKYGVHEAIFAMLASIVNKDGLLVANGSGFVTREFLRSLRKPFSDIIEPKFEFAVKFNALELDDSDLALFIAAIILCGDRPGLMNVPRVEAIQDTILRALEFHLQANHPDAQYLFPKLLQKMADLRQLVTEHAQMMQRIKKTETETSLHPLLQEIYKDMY
The data set can be described thus: Agonist activity at PPARdelta expressed in african green monkey CV1 cells co-expressing MH100 up to 10 uM by luciferase reporter gene assay relative to control. Format: functional, cell-based. Conditions: CV-1.

Data set [6] addresses Vitamin D3 receptor (Homo sapiens) (UniProt P11473). The data set can be described thus: Agonist activity at VP16-VDR expressed in african green monkey CV1 cells co-expressing MH100 up to 10 uM by luciferase reporter gene assay relative to control. The data set is classed as functional, cell-based. To be noted: CV-1.
Data set [7] is described as follows: Cmax in CD rat at 3 mg/kg, iv. To be noted: in vivo. Also on record: dose 3 mg/kg, route intravenous. The data set is classed as ADME, organism-based.
Data set [8] is described as follows: Volume of distribution in CD rat at 3 mg/kg, iv. The data set is classed as ADME, organism-based. Set-up: dose 3 mg/kg, route intravenous. To be noted: in vivo, read-out: Vdss.
For another data set, the system named is Mus musculus. The data set can be described thus: Inhibition of preatherosclerotic lesion in LDLR knockout mouse model at 3 mg/kg, po administered for 6 weeks by en-face analysis. Format: functional. Also on record: scale not given: the % may be the effect or the level left.

Sequence of Vitamin D3 receptor (Homo sapiens) (P11473 whole entry): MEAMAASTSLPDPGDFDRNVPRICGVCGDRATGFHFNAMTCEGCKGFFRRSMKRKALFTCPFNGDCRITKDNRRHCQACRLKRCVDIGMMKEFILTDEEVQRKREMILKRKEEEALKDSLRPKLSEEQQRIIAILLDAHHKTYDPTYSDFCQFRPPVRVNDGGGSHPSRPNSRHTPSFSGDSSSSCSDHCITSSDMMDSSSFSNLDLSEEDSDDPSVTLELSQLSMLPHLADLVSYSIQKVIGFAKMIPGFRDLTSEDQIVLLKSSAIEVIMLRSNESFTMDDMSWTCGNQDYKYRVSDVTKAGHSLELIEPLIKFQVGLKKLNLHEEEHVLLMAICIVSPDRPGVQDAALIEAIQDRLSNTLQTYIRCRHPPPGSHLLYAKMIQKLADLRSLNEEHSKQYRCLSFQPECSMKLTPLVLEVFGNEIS

In the case of `CC(C)OC(=O)C1=CN(C(=O)c2ccc(F)c(F)c2)CC(C)(C)c2c1[nH]c1ccccc21` [TUROFEXORATE ISOPROPYL], the outcome in data set [1], in data set [2], in [3], in data set [5] and in data set [6] was inactive. The molecule also came in with an Efficacy in [4] of 149%. In data set [7], the Cmax – broadly, the maximum level reached in the sampled fluid or tissue – is 30.5 µM. Also, the Vd in data set [8] came to 3.3 L/kg. This molecule came in with an Activity in the data set with Mus musculus of 36%.
